Data on one substance can be found in patent publication US20070275925A1, “ASTHMA DIAGNOSIS AND THERAPY” (REGENTS OF THE UNIVERSITY OF CALIFORNIA, priority 2006, published 2007).

The test system of the experiment is primary human airway epithelial cells. As to the kind of experiment: IL-13 stimulation of airway epithelial cells in vitro, real time RT-PCR. Type of experiment: cell-based. Particulars: IL-13 10 ng/mL, up to 4 days. The procedure: To confirm that airway epithelial cells are a source of serpinB2 and periostin and that these genes may be induced by cytokines relevant to asthma, we stimulated primary human airway epithelial cells in vitro with IL-13 (0.1 to 10 ng) for up to 4 days (methods in supplementary appendix).
Human primary bronchial airway epithelial cells were purchased (Clonetics—Cambrex Bio Science, Walkersville Md.) and grown as described by Gray et al.^7 Cells were purchased at passage 1 and expanded in T25 flasks until they reached 80% confluency at which time they were passaged onto 6.5 mm Transwell permeable supports at a density of 132,000 cells/filter. The cells were grown submerged in Gray's medium until approximately day 7 to 9 at which point an air-liquid interface was established. Cells became fully differentiated (ciliated and mucous producing) as determined by transepithelial voltage and resistance after 2-3 weeks on the filters. Cells were exposed to the recombinant human IL-13 (R&D Systems, Minneapolis Minn.) for up to four days at concentrations ranging from 0.1 ng/ml to 10 ng/ml. Filters were cut from the support and submerged in RLT lysis buffer (Qiagen Inc, Valencia Calif.) and stored at −80° C. before analysis of gene expression by real time RT-PCR.

“IL-13: recombinant human IL-13 (R&D Systems) used to stimulate airway epithelial cells”: the “Epithelial gene expression of periostin” value is recorded as “large increases” and the “Epithelial gene expression of serpinB2” value is given as “large increases”.
